Source: ChEMBL document CHEMBL6120973 (J Med Chem, 2024)
In brackets after ≈: the same amount, converted by molar mass.

Key:
Cytochrome P450 3A4 = Cytochrome P450 3A4 (Homo sapiens, UniProt P08684); assay: Inhibition of CYP3A4 in human liver microsomes using midazolam as substrate preincubated for 10 mins followed by NADPH addition and measured after 15 mins by LC/MS/MS analysis
[1] = Selectivity index, ratio of CC50 for human MT4 cells to EC50 for wild type HIV-1 IIIB infected in human MT4 cellS; conditions: MT4 cells
[2] = Acute toxicity in male ICR mouse assessed as effect on pathological damage in liver at 2000 mg/kg, IG measured after 14 days by H and E staining based analysis; assay type: organism-based; conditions: in vivo, po, 336 h, time 14 day
[3] = tested on: Human immunodeficiency virus 1; assay: Potency index, ratio of 4-(8-(3-nitrophenyl)-1,7-naphthyridin-6-yl)benzoic acid MIC to test compound MIC for antiviral activity against wildtype HIV-1 IIIB infected in human MT4 cells assessed as protection against virus-induced cytopathic effect incubated for 5 days by MTT assay; assay type: functional; conditions: time 5 day
[4] = Cytotoxicity against human MT4 cells assessed as reduction in cell viability measured after 5 days by MTT assay; conditions: MT4 cells
[5] = Solubility of compound in Watson's distilled pure water measured after 24 hrs by HPLC analysis; assay type: physicochemical
[6] = Metabolic stability in rat liver microsomes assessed as half-life at 0.1 uM preincubated for 10 mins followed by NADPH addition and measured upto 60 mins by LC-MS/MS analysis; assay type: ADME, Microsome; conditions: time < 70 min
[7] = Acute toxicity in female ICR mouse assessed as effect on behavior at 2000 mg/kg, IG measured after 14 days; assay type: organism-based; conditions: in vivo, po, 336 h, time 14 day
Cytochrome P450 1A2 = target: T1, Cytochrome P450 1A2 (Homo sapiens, UniProt P05177); assay: Inhibition of CYP1A2 in human liver microsomes preincubated for 10 mins followed by NADPH addition and measured after 15 mins by LC/MS/MS analysis
T1 sequence (P05177 whole entry): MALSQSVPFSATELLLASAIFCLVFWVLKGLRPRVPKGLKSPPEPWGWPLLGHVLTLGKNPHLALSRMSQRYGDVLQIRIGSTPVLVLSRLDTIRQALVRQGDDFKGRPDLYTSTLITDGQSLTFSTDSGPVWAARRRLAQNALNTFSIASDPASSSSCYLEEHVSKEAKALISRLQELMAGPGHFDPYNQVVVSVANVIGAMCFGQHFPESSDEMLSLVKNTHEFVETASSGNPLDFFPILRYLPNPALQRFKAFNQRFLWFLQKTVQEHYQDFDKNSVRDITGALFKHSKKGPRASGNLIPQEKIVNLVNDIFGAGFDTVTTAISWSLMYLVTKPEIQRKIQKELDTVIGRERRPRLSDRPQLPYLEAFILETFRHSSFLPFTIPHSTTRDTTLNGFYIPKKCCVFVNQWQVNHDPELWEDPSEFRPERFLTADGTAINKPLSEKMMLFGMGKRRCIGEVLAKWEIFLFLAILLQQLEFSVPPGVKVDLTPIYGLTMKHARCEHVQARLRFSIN

[8] = tested on: Human immunodeficiency virus 1; assay: Antiviral activity against HIV-1 harboring RT K103N/Y181C double mutant infected in human MT4 cells assessed as protection against virus-induced cytopathic effect incubated for 5 days by MTT assay; assay type: functional, organism-based; conditions: Human immunodeficiency virus 1, MT4, 120 h
[9] = Acute toxicity in male ICR mouse assessed as effect on pathological damage in spleen at 2000 mg/kg, IG measured after 14 days by H and E staining based analysis; assay type: organism-based; conditions: in vivo, po, 336 h, time 14 day
[10] = target: Voltage-gated inwardly rectifying potassium channel KCNH2 (Homo sapiens, UniProt Q12809); assay: Inhibition of human ERG expressed in CHO cells at holding potential of -80 mV by automated patch clamp electrophysiological method; assay type: toxicity, cell-based
Sequence of Voltage-gated inwardly rectifying potassium channel KCNH2 (Q12809 whole entry): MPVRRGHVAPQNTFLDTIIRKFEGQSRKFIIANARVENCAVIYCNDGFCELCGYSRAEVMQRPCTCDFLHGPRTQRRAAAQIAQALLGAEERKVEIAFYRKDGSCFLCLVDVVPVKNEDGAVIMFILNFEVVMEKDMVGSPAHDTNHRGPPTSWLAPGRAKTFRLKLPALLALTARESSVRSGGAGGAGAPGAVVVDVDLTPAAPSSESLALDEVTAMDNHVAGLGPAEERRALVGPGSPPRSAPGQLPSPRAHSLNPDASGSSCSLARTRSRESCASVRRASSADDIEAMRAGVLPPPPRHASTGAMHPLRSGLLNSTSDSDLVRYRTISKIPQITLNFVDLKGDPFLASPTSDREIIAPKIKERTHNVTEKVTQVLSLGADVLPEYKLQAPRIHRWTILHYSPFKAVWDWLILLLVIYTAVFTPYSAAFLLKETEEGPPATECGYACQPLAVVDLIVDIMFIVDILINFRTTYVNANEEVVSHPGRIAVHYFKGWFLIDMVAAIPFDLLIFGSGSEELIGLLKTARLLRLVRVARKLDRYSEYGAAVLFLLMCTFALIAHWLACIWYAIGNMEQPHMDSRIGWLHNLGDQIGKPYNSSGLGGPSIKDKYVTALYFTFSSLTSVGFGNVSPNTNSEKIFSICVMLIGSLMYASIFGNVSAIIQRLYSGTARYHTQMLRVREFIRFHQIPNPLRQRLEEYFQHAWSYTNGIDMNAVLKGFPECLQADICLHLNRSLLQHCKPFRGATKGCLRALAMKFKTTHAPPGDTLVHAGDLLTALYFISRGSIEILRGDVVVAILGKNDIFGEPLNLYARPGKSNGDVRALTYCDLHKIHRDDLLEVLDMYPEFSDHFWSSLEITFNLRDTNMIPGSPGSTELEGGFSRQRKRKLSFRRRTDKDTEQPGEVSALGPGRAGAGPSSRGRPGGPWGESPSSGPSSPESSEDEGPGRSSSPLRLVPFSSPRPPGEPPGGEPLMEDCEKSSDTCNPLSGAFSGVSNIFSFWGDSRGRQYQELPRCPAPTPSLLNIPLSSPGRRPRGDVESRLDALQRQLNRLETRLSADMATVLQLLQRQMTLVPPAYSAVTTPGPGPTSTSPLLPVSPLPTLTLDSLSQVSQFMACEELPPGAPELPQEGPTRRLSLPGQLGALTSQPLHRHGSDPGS

[11] = tested on: Human immunodeficiency virus 1; assay: Antiviral activity against wildtype HIV-1 IIIB infected in human MT4 cells assessed as protection against virus-induced cytopathic effect incubated for 5 days by MTT assay; assay type: functional, organism-based; conditions: Human immunodeficiency virus 1, IIIB, MT4, 120 h
[12] = Acute toxicity in female ICR mouse assessed as effect on pathological damage in lung at 2000 mg/kg, IG measured after 14 days by H and E staining based analysis; assay type: organism-based; conditions: in vivo, po, 336 h, time 14 day
[13] = tested on: Human immunodeficiency virus 1; assay: Antiviral activity against HIV-1 harboring RT Y181C mutant infected in human MT4 cells assessed as protection against virus-induced cytopathic effect incubated for 5 days by MTT assay; assay type: functional, organism-based; conditions: Human immunodeficiency virus 1, MT4, 120 h
[14] = Acute toxicity in male ICR mouse assessed as effect on pathological damage in kidney at 2000 mg/kg, IG measured after 14 days by H and E staining based analysis; assay type: organism-based; conditions: in vivo, po, 336 h, time 14 day
[15] = Acute toxicity in male ICR mouse assessed as effect on pathological damage in brain at 2000 mg/kg, IG measured after 14 days by H and E staining based analysis; assay type: organism-based; conditions: in vivo, po, 336 h, time 14 day
hERG = hERG (Homo sapiens, UniProt Q12809); assay: Inhibition of human ERG expressed in CHO cells at holding potential of -80 mV at >40 uM by automated patch clamp electrophysiological method relative to control; assay type: toxicity, cell-based; conditions: CHO cells that express hERG
Sequence of hERG (Q12809 whole entry): as above

[16] = Acute toxicity in male ICR mouse assessed as effect on body weight at 2000 mg/kg, IG measured after 14 days; assay type: organism-based; conditions: in vivo, po, 336 h, time 14 day
[17] = Acute toxicity in female ICR mouse assessed as effect on pathological damage in heart at 2000 mg/kg, IG measured after 14 days by H and E staining based analysis; assay type: organism-based; conditions: in vivo, po, 336 h, time 14 day
Cytochrome P450 2C9 = Cytochrome P450 2C9 (Homo sapiens, UniProt P11712); assay: Inhibition of CYP2C9 in human liver microsomes preincubated for 10 mins followed by NADPH addition and measured after 15 mins by LC/MS/MS analysis
Sequence of Cytochrome P450 2C9 (P11712 whole entry): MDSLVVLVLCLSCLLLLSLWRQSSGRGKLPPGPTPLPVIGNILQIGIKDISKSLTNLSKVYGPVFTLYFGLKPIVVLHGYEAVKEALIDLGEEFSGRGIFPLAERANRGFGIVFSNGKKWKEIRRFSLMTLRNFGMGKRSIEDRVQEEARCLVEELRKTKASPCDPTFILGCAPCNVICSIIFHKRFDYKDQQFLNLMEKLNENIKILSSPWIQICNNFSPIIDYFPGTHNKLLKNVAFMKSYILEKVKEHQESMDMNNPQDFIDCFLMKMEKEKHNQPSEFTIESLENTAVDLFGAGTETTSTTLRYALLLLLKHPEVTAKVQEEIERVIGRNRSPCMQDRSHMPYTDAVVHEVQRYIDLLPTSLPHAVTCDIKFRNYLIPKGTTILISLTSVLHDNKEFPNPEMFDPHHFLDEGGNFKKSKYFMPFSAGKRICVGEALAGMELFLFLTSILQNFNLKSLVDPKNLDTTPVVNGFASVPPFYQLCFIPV

Cytochrome P450 2D6 = Cytochrome P450 2D6 (Homo sapiens, UniProt P10635); assay: Inhibition of CYP2D6 in human liver microsomes preincubated for 10 mins followed by NADPH addition and measured after 15 mins by LC/MS/MS analysis
Sequence of Cytochrome P450 2D6 (P10635 whole entry): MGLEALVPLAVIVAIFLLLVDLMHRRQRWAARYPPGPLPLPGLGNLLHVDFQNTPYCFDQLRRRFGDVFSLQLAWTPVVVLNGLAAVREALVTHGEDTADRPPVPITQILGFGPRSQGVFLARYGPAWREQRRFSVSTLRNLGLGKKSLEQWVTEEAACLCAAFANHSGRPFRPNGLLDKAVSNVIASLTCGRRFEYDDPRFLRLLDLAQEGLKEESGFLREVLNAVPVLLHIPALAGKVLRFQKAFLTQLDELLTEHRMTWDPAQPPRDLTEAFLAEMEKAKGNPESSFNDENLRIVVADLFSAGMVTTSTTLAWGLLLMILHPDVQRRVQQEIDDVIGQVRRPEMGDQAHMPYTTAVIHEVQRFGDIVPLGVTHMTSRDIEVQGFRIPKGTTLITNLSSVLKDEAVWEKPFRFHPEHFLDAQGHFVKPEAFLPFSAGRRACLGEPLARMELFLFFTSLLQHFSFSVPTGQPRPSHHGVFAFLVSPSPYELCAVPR

[18] = tested on: Human immunodeficiency virus 1; assay: Antiviral activity against HIV-1 harboring RT F227L/V106A double mutant infected in human MT4 cells assessed as protection against virus-induced cytopathic effect incubated for 5 days by MTT assay; assay type: functional, organism-based; conditions: Human immunodeficiency virus 1, MT4, 120 h
[19] = Acute toxicity in male ICR mouse assessed as effect on pathological damage in lung at 2000 mg/kg, IG measured after 14 days by H and E staining based analysis; assay type: organism-based; conditions: in vivo, po, 336 h, time 14 day
[20] = Acute toxicity in female ICR mouse assessed as effect on pathological damage in brain at 2000 mg/kg, IG measured after 14 days by H and E staining based analysis; assay type: organism-based; conditions: in vivo, po, 336 h, time 14 day
[21] = Acute toxicity in female ICR mouse assessed as effect on pathological damage in liver at 2000 mg/kg, IG measured after 14 days by H and E staining based analysis; assay type: organism-based; conditions: in vivo, po, 336 h, time 14 day
[22] = Solubility of compound in phosphate buffer at pH 7.0 measured after 24 hrs by HPLC analysis; assay type: physicochemical
[23] = tested on: Human immunodeficiency virus 1; assay: Antiviral activity against HIV-1 harboring RT K103N mutant infected in human MT4 cells assessed as protection against virus-induced cytopathic effect incubated for 5 days by MTT assay; assay type: functional, organism-based; conditions: Human immunodeficiency virus 1, MT4, 120 h
[24] = Acute toxicity in female ICR mouse assessed as effect on body weight at 2000 mg/kg, IG measured after 14 days; assay type: organism-based; conditions: in vivo, po, 336 h, time 14 day
[25] = Metabolic stability in human liver microsomes assessed as half-life at 0.1 uM preincubated for 10 mins followed by NADPH addition and measured upto 60 mins by LC-MS/MS analysis; assay type: ADME, Microsome; conditions: time < 70 min

Sequence of Cytochrome P450 3A4 (P08684 whole entry): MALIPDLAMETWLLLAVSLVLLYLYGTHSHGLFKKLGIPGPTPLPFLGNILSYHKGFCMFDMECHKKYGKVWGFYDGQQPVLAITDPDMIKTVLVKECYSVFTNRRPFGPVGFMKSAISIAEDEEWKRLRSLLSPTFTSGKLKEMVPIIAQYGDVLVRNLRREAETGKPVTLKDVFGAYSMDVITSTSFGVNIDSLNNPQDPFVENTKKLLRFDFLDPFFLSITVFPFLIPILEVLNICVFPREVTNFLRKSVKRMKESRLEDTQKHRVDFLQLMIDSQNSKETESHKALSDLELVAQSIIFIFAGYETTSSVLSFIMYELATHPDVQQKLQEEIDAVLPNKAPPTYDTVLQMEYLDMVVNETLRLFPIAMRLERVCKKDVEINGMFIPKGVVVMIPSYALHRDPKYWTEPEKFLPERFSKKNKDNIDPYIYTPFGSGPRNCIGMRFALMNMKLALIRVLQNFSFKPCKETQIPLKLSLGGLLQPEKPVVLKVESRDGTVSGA

Cc1cc(-c2ccncc2)cc(C)c1Nc1nc(Nc2ccc(C#N)cc2)ncc1-c1cn[nH]c1
IC50 (Cytochrome P450 3A4): > 50 µM | selectivity ratio [1]: > 52600 | Activity [2]: Non-toxic | Ratio [3]: 37 | CC50 at 120 h [4]: > 273 µM | solubility at 24 h [5]: 1.3 µg/mL (≈ 2.84 µM) | half-life at 0.1 µM [6]: 20.4 min | Activity [7]: Non-toxic | IC50 (Cytochrome P450 1A2): > 50 µM | EC50 [8]: 42 nM | Activity [9]: Non-toxic | IC50 [10]: > 40 µM | EC50 [11]: 5 nM | Activity [12]: Non-toxic | EC50 [13]: 13 nM | Activity [14]: Non-toxic | Activity [15]: Non-toxic | inhibition at 40 µM (hERG): 31.4% | Activity [16]: Non-toxic | Activity [17]: Non-toxic | IC50 (Cytochrome P450 2C9): > 50 µM | IC50 (Cytochrome P450 2D6): > 50 µM | EC50 [18]: 79 nM | Activity [19]: Non-toxic | Activity [20]: Non-toxic | Activity [21]: Non-toxic | solubility at 24 h [22]: < 1 µg/mL | EC50 [23]: 7 nM | Activity [24]: Non-toxic | half-life at 0.1 µM [25]: 29.9 min
